Measurements as given in paper PMC12830207, “Targeting the protein–protein interaction between the CDC37 cochaperone and client kinases by an allosteric RAF dimer breaker” (The Journal of Biological Chemistry, 2025).
“Also recorded” adds a separate entry of the source.

Columns and labels:
BRAF kinase domain = experiment: Hydrogen–deuterium exchange MS; format: binding, human; details: BRAF^KD 10 μM, braftide 30 μM, pH 7.4, 20 s to 4.5 h, duplicate HDX–MS
Experimental: The 6XHIS-BRAF KD (residues 442–723, supplementary information 1) was purified as previously reported ([39]) with the human sequence expressed in Escherichia coli. The KD contains 16 solubilizing mutations (I543A, I544S, I551K, Q562R, L588N, K630S, F667E, Y673S, A688R, L706S, Q709R, S713E, L716E, S720E, P722S, and K723G), which were determined to preserve kinase activity and increase protein expression in E. coli. Mutations of the 16 residues are not involved in MEK1 interactions ([40], [41]). […] Protein induction was induced by 1 mM IPTG, 16 °C in a shaking incubator, 200 RPM. The pellet was lysed in a buffer containing 50 mM Hepes (pH 7.4), 250 mM NaCl, 50 mM KCl, 10 mM imidazole, 10 mM β-mercaptoethanol, 10% glycerol, and 1X protease inhibitor (Roche) under sonication. […] Protein fractions were analyzed on SDS-PAGE, pooled, and flash frozen for analytical use.
The exchange times varied from 20 s to 4.5 h. […] Peptides were identified through MS/MS analysis of nondeuterated samples, with data analyzed using SEQUEST (Thermo Proteome Discoverer) against a database containing sequences of BRAF^KD, braftide, pepsin, potential contaminants, and decoy proteins. Deuterated samples were analyzed using ExMS2 software (developed by Englander Lab at University of Pennsylvania).

HEK293 cells = experiment: Annexin V apoptosis assay, HEK293; format: cell-based, human; details: 0, 5, 10, 25, 50, 75, and 100 μM braftide, 4 h, n = 3
Experimental: (§1) HEK293 cells and HCT116 cells were treated with either control or braftide at the indicated concentrations for 4 h. After treatment, both the floating and adherent cell populations were collected and adjusted with PBS (final concentration: 1 × 10^5 cells/ml). The cells were then mixed with the Annexin V (Cytex; FCCH100108) reagent in a 5:1 ratio (100 μl of cells mixed with 20 μl of Annexin V reagent) and allowed to stain in the dark, at room temperature for 15 min. The cells were then analyzed on a Guava Muse Cell Analyzer (Millipore).

HCT116 cells [1] = experiment: Annexin V apoptosis assay, HCT116; format: cell-based; details: for apoptotic cell death, braftide + 17-AAG combination versus 17-AAG monotherapy: HCT116, Annexin V, n=3, Fig. S12, B and C
Experimental: as §1

CDC37–HSP90 interaction = experiment: Co-IP of CDC37-FLAG with HSP90 in HEK293; format: cell-based, human (HEK293); details: HEK293, 25 μM braftide, bortezomib pretreatment
Experimental: (§2) HEK293 cells were seeded at 1(10)^6 cells per well for a 6-well plate or 5(10)^6 for 10 cm dishes and incubated until 40% to 60% confluency. Transfection was carried out using a 1:3 DNA:PEI-MAX ratio in OPTI-MEM and allowed 48 h for protein expression. For peptide assays, 48 h post-transfection, cells were treated with TAT–braftide carried in OPTI-MEM at indicated concentrations. Cells were harvested in cold PBS. Harvested cells were lysed in 4% SDS or modified radioimmunoprecipitation assay (RIPA) for co-IP experiments. Quantification of total protein by the bicinchoninic acid assay was carried out according to the manufacturer's protocols (Pierce; catalog no.: 23225).
(§3) Transfected HEK293 cells were treated with the indicated treatments and harvested in cold PBS. […] Samples were analyzed via immunoblot.
(§4) Western blot band densities were quantified with ImageJ software (National Institutes of Health) and normalized to the indicated loading control. Statistical significance was determined through one-/two-way ANOVA, where indicated, followed by Tukey's honest significant difference post hoc test with corresponding p values (∗p < 0.05, ∗∗p < 0.002, ∗∗∗p < 0.0002, and ∗∗∗∗p < 0.0001). […]

HCT116 cells [2] = details: HCT116, previously reported, readout not given; read-out: EC50, braftide, HCT116; cited from earlier work
Excerpt: Our findings highlight the therapeutic potential of targeting CDC37–client kinase interactions, as oncogenic kinases are intrinsically unstable and thus are more dependent on their association with the HSP90–CDC37 chaperone complex for stability and activation compared with their wildtype counterparts ([4]). […] HCT116 cells harbor an upstream KRAS […]–activating mutation, with a previously reported braftide ...

CDC37–AKT1 interaction = experiment: Co-IP of CDC37-FLAG with AKT1; format: cell-based, human (HEK293); details: HEK293, 25 µM braftide, bortezomib pretreated, n=4
Experimental: as §2, §3, §4

GRKKRRQRRRPQ-miniPEG-TRHVNILLFM [Braftide]
braftide binding region on BRAF KD / change in deuterium uptake (BRAF kinase domain): slows deuterium incorporation compared to apo BRAF^KD; also recorded: essentially no change except in the dimer interface region
braftide binding region on BRAF KD / change in deuterium uptake (BRAF kinase domain; listed as braftide): spanning amino acids 496 to 515
apoptosis (Annexin V), HEK293 (HEK293 cells): triggers apoptosis
apoptosis (Annexin V), HEK293 (HEK293 cells; listed as braftide): triggered dose-dependent apoptosis
apoptosis (Annexin V), HCT116 (HCT116 cells [1]; 0, 5, 10, 25, 50, 75, and 100 μM braftide, 4 h, n = 3, listed as braftide): triggered dose-dependent apoptosis; also recorded: HCT116 cells showed higher sensitivity to braftide compared with HEK293
apoptotic cell death, braftide + 17-AAG combination versus 17-AAG monotherapy (HCT116 cells [1]): synergizes with 17-AAG in HCT116 cells to trigger cell death at lower treatment concentrations
apoptotic cell death, braftide + 17-AAG combination versus 17-AAG monotherapy (HCT116 cells [1]; listed as braftide): significant increase in apoptotic cell death with the combination therapy compared with monotherapy
CDC37–HSP90 interaction (CDC37–HSP90 interaction): maintaining the CDC37–HSP90 interaction
EC50 (HCT116 cells [2]): 7.1 ± 0.5 µM
association of CDC37 with AKT1 (CDC37–AKT1 interaction): disrupts client AKT1 from CDC37-FLAG in HEK293 cells
association of CDC37 with AKT1 (CDC37–AKT1 interaction; listed as braftide): reduced association of CDC37 with AKT1
